# Measurements: US20240166702A1, “COMPOSITIONS AND METHODS FOR TREATING BREAST CANCER” (Arizona Board of Regents on Behalf of The University of …, priority 2021, published 2024)
# Assays:
# [1] = test system: A549 lung cancer line with wildtype EGFR; assay: MTT cell viability assay in A549 cells; assay type: cell-based; conditions: 3 days
# [2] = test system: BT20 triple negative breast cancer cells; assay: BT20 mammosphere assay; assay type: cell-based, human
# Protocol: (§1) Cells were then fractionated and verified by HSP90 cytosolic protein, Bap31 membrane protein, or HDAC nuclear protein. B. MDA-MB-468 cells were serum starved overnight then stimulated with EGF on ice for 10 minutes. […] B. MDA-MB-468 cells were serum starved overnight then incubated on ice with 10 ng/mL EGF for 10 minutes. […] C. […] After the second week, the number of secondary mammospheres were counted.
# BT20 cells = assay type: cell-based, human
# Protocol: B. MDA-MD-468 cells were transduced with an IPTG inducible shEGFR targeted against the 3′ UTR of EGFR. These cells were incubated with IPTG for the indicated number of days and lysates were generated to confirm knock down of EGFR. C. In tandem with B., cells were plated and incubated +/−IPTG for 2 days prior to drug treatment. […] After 5 days of IPTG and 3 days of peptide treatment viability was measured using an MTT assay.
# To investigate rt-EGFR, the role of the Sorting Nexins to regulate EGFR trafficking to the lysosome for degradation was investigated. To determine if SNX1 domains could be therapeutically mimicked, three SNX1-based peptides were synthesized, each of which was generated in tandem with a Cell Penetrating Peptide domain (PTD-4) to allow for intracellular penetration^19 (SNX1.1, 1.2 and 1.3, FIG. 2A). The ability of each peptide to reduce cell survival in the triple negative breast cancer cell line BT20 was evaluated.
# EGFR activity is known to promote the activity of other RTKs, including those in the EGFR family (HER2, HER3 and HER4) and the c-Met receptor (Puri and Salgia 2008; Linklater et al. 2016). Therefore, the ability of SNX1.3 to inhibit 2D migration was next evaluated, both in response to EGF as well as other migration-inducing ligands. […] Cells were plated on plastic and allowed to migrate into an artificial wound over 12 hours. […] To determine if this inhibitory effect was restricted to EGF-induced migration, the ability of SNX1.3 to impact neuregulin (NRG1) was also tested and hepatic growth factor (HGF)-induced migration. NRG is the ligand for HER3 and HER4, and HGF the ligand for the c-Met receptor, both of which are receptor tyrosine kinases. In addition, soluble hyaluronic acid (HA)-induced migration, the ligand for CD44, was also tested [a non-kinase membrane receptor that induces migration (Louderbough, Lopez, and Schroeder 2010)]. […] Note that all receptors undergo endocytosis, with the RTKs primarily undergoing clathrin-dependent endocytosis, while CD44 endocytosis is clathrin-independent (Dutta and Donaldson 2015).
# nuclear localized EGFR = assay: Subcellular protein fractionation for EGFR nuclear localization; assay type: cell-based, human; conditions: MDA-MB-468 serum starved, EGF and peptide for 2 hours
# Protocol: as §1
# MDA-MB-468 were serum starved overnight then incubated with EGF and peptide for 2 hours to allow for nuclear localization of EGFR. Subcellular protein fractionation was then performed to isolate cytosolic, membrane, and nuclear protein fractions (FIG. 5A).
# WAP-TGFα tumors = assay: Immune profiling FACS analysis of WAP-TGFα tumors; assay type: in vivo, mouse; conditions: 3 treated tumors; preliminary FACS
# Protocol: Preliminary immune profiling FACS analysis performed with the markers described in Example 1.
# To begin to evaluate how these changes indicated by NanoString represented the immune microenvironment of these tumors, Immune Profiling was performed. […] When tumors had regressed to ˜100 mm^3 (after 1-2 weeks of treatment), tumor were excised, treated with collagenase and analyzed by FACS, using a 17-antibody panel to determine cell types present. Data was analyzed by first selecting for CD45+ cells to isolate leukocytes, then further gated based on markers specific to cells of both the adaptive and innate immune system. This preliminary analysis was done with 3 cSNX1.3-treated tumors, and the internal positive control of one spleen. […]
# Immune Profiling: Tissues are digested and analyzed by FACS for the following immune markers: CD45 (lymphocytes), CD4 (helper T cells) CD3 (Pan T cell), CD25 (Activated T cells), CD8a (cytotoxic T cells), Ly6G (G-Myeloid Derived Suppressor Cells (MDSC), CD11 b (MDSC), Ly6C (M-M DSC), CD11C (Dendritic Cells), F4/80 (Macrophages), Granzyme B (Natural Killer (NK) and CD8 T cells), Arginase 1 (MDSC), Perforin (NK and CD8 Tcells), iNos (macrophages), TNFα (pro inflammatory cytokine), INFy (pro inflammatory cytokine), FoxP3 (Treg). The samples are run on a Cytek Aurora full spectrum flow cytometer and are optimized for the mouse tissues (FIG. 10). […]
smiles,measurement,setting,value
CC[C@H](C)[C@H](NC(=O)[C@@H](NC(=O)[C@H](Cc1c[nH]cn1)NC(=O)[C@H](CC(N)=O)NC(=O)[C@H](CCCCN)NC(=O)[C@H](C)NC(=O)[C@H](CCCNC(=N)N)NC(=O)[C@H](C)NC(=O)[C@H](CCC(N)=O)NC(=O)[C@H](CCCNC(=N)N)NC(=O)[C@H](C)NC(=O)[C@H](C)NC(=O)[C@H](C)NC(=O)[C@H](CCCNC(=N)N)NC(=O)[C@H](C)NC(=O)[C@H](Cc1ccc(O)cc1)NC(C)=O)C(C)C)C(=O)N[C@@H](CCCCN)C(=O)N[C@@H](Cc1ccc(O)cc1)C(=O)N[C@@H](CC(C)C)C(=O)N[C@@H](CCC(=O)O)C(=O)N[C@H](C(=O)N[C@@H](CC(C)C)C(=O)N[C@@H](CC(C)C)C(=O)N[C@@H](Cc1ccc(O)cc1)C(=O)N[C@@H](CO)C(=O)N[C@@H](CCC(N)=O)C(=O)N[C@@H](CCC(N)=O)C(=O)N[C@@H](CCC(N)=O)C(=O)N[C@@H](CC(C)C)C(=O)N[C@@H](C)C(=O)N[C@@H](CCCCN)C(=O)N[C@@H](Cc1ccc(O)cc1)C(=O)N[C@@H](Cc1c[nH]c2ccccc12)C(=O)N[C@@H](CCC(=O)O)C(=O)N[C@@H](C)C(=O)N[C@@H](Cc1ccccc1)C(=O)N[C@@H](CC(C)C)C(N)=O)[C@@H](C)O [cSNX1.3],"inhibition of cell survival, compared with Sapitinib",[1],more effective than Sapitinib
same,secondary sphere formation after treatment in the first week only,"[2]; BT20, cSNX1.3 in first week, cPTD4 or vehicle in second week",significant reduction of sphere formation
same,mammosphere formation,"[2]; BT20, first week of treatment",no mammospheres were formed
same,"secondary mammosphere formation, treated in the second week","[2]; BT20, re-plated, treatment on the second week",no mammosphere formation
same,IC50,BT20 cells,25 µM
same,"inhibition of cell survival, compared with Sapitinib","BT20 cells; BT20, 3 days, MTT assay",more effective than Sapitinib
same,nuclear localized EGFR,nuclear localized EGFR,loss of nuclear localized EGFR
same,CTLs in tumors,WAP-TGFα tumors,Abundant
same,M1 macrophages over M2 macrophages (M1/M2 ratio),WAP-TGFα tumors,high and increase
